Data on 20 compounds can be found in PubChem BioAssay AID328 (DTP/NCI, 2004).

For the assay, the system named is BDF1 mice, P388 leukemia ip, median survival T/C. Description: NCI In Vivo Anticancer Drug Screen. Data for tumor model P388 Leukemia (intraperitoneal) in B6D2F1 (BDF1) mice. Particulars: endpoint: median survival time, higher = longer survival. The procedure, abridged: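 In tumour-bearing mice, survival after compound treatment is set against the vehicle group and given as a quotient.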

The mark [1] stands for this setting: dose: 200.0 mg/kg/injection, schedule: Q01DX009 (ip), vehicle: Klucel (hydroxypropylcellulose) (HPC).
[2] abbreviates: dose: 100.0 mg/kg/injection, schedule: Q04DX003 (ip), vehicle: Klucel (hydroxypropylcellulose) (HPC).
Setting [3] is: dose: 200.0 mg/kg/injection, schedule: Q04DX003 (ip), vehicle: Klucel (hydroxypropylcellulose) (HPC).
Setting [4] is: dose: 400.0 mg/kg/injection, schedule: Q04DX003 (ip), vehicle: Klucel (hydroxypropylcellulose) (HPC).
Setting [5] is: dose: 100.0 mg/kg/injection, schedule: Q01DX009 (ip), vehicle: saline.
Where [6] appears, read: dose: 200.0 mg/kg/injection, schedule: Q01DX009 (ip), vehicle: saline.
Where [7] appears, read: dose: 400.0 mg/kg/injection, schedule: Q01DX009 (ip), vehicle: saline.
Where [8] appears, read: dose: 50.0 mg/kg/injection, schedule: Q01DX009 (ip), vehicle: Klucel (hydroxypropylcellulose) (HPC).
Setting [9] is: dose: 100.0 mg/kg/injection, schedule: Q01DX009 (ip), vehicle: Klucel (hydroxypropylcellulose) (HPC).
Where [10] appears, read: dose: 2.5 mg/kg/injection, schedule: Q04DX003 (ip), vehicle: saline.
[11] abbreviates: dose: 100.0 mg/kg/injection, schedule: Q01DX009 (ip), vehicle: saline with Tween-80.
The mark [12] stands for this setting: dose: 100.0 mg/kg/injection, schedule: Q04DX003 (ip), vehicle: saline with Tween-80.
Setting [13] is: dose: 200.0 mg/kg/injection, schedule: Q01DX009 (ip), vehicle: saline with Tween-80.
[14] abbreviates: dose: 200.0 mg/kg/injection, schedule: Q04DX003 (ip), vehicle: saline with Tween-80.
Setting [15] is: dose: 100.0 mg/kg/injection, schedule: Q01DX001 (ip), vehicle: saline with Tween-80.
The mark [16] stands for this setting: dose: 200.0 mg/kg/injection, schedule: Q01DX001 (ip), vehicle: saline with Tween-80.
Where [17] appears, read: dose: 400.0 mg/kg/injection, schedule: Q01DX001 (ip), vehicle: saline with Tween-80.
The mark [18] stands for this setting: dose: 400.0 mg/kg/injection, schedule: Q01DX009 (ip), vehicle: saline with Tween-80.

Each structure is given as a SMILES string. “And” between values parts separate entries of the source, which are not always exact repeats. Equal entries are not always repeated. Inconclusive results and toxic doses are left out.

As to `CCSc1nc(Cl)cc(Sc2nc(N)nc3nc[nH]c23)n1`, the T/C is 113 % of control (dose: 17.0 mg/kg/injection, schedule: Q01DX010 (ip), vehicle: acetone); 115 % of control (dose: 18.0 mg/kg/injection, schedule: Q01DX009 (ip), vehicle: Klucel (hydroxypropylcellulose) (HPC)); 168 % of control (dose: 26.0 mg/kg/injection, schedule: Q01DX010 (ip), vehicle: acetone); 150 % of control (dose: 40.0 mg/kg/injection, schedule: Q01DX010 (ip), vehicle: saline); 165 % of control (dose: 60.0 mg/kg/injection, schedule: Q01DX010 (ip), vehicle: saline); 110 % of control (dose: 132.0 mg/kg/injection, schedule: Q01DX010 (ip), vehicle: saline). The T/C is, setting by setting: under setting [1], 95 % of control; (dose: 200.0 mg/kg/injection, schedule: Q01DX010 (ip), vehicle: saline) 90 % of control.

For `O=[N+]([O-])c1ccc(N/N=C/c2ccccn2)cc1`, the T/C is 104 % of control under setting [2], 100 % of control under setting [3] and 109 % of control under setting [4].

Take `CC(=O)C1CCCC23CC(CC12)C(C)(C)C3OC=O` (configuration not stated): the T/C under setting [2] is 90 % of control, the T/C under setting [3] is 100 % of control and the T/C under setting [4] is 109 % of control.

Consider `CC[N+]1(CC)CCOC(=O)C1`, for which the T/C is 92 % of control under setting [5], 92 % of control under setting [6] and 92 % of control under setting [7].

Take `CN(N=O)c1ccc(N(C)N=O)cc1`: the T/C under setting [8] is 95 % of control; the T/C under setting [9] was 95 % of control; the T/C under setting [2] was 95 % of control; the T/C under setting [1] is 90 % of control; the T/C under setting [3] was 105 % of control; the T/C under setting [4] is 95 % of control.

On to `Clc1nc2nc(C(Cl)(Cl)Cl)[nH]c2nc1Cl`, for which the T/C is 95 % of control (dose: 12.5 mg/kg/injection, schedule: Q01DX009 (ip), vehicle: Klucel (hydroxypropylcellulose) (HPC)); 108 % of control (dose: 25.0 mg/kg/injection, schedule: Q01DX009 (ip), vehicle: Klucel (hydroxypropylcellulose) (HPC)); 116 % of control under setting [8].

Regarding `Cc1ccc(NC(=S)NNC(=S)NNc2ccccc2)cc1C`, the T/C was 115 % of control under setting [9] and 120 % of control under setting [1].

Turning to `C[n+]1ccc(C#N)c2ccccc21`, the T/C is 92 % of control and 100 % of control (dose: 1.1 mg/kg/injection, schedule: Q04DX003 (ip), vehicle: saline); 95 % of control (dose: 1.71 mg/kg/injection, schedule: Q04DX003 (ip), vehicle: saline); 88 % of control and 95 % of control under setting [10]; 104 % of control (dose: 3.12 mg/kg/injection, schedule: Q01DX009 (ip), vehicle: saline); 120 % of control (dose: 3.43 mg/kg/injection, schedule: Q04DX003 (ip), vehicle: saline); 118 % of control (dose: 6.25 mg/kg/injection, schedule: Q01DX009 (ip), vehicle: saline). For the same compound, the T/C was 100 % of control (dose: 6.87 mg/kg/injection, schedule: Q04DX003 (ip), vehicle: saline); 91 % of control (dose: 7.5 mg/kg/injection, schedule: Q04DX003 (ip), vehicle: saline with Tween-80); 120 % of control (dose: 11.0 mg/kg/injection, schedule: Q01DX009 (ip), vehicle: saline); 118 % of control (dose: 12.5 mg/kg/injection, schedule: Q01DX009 (ip), vehicle: saline); 104 % of control (dose: 15.0 mg/kg/injection, schedule: Q04DX003 (ip), vehicle: saline with Tween-80).

For `COc1ccc(/C=C2\N=C(c3ccccc3)OC2=O)cc1OC`, the T/C (dose: 100.0 mg/kg/injection, schedule: Q01DX001 (ip), vehicle: saline) is 90 % of control; the T/C (dose: 200.0 mg/kg/injection, schedule: Q01DX001 (ip), vehicle: saline) is 104 % of control; the T/C (dose: 400.0 mg/kg/injection, schedule: Q01DX001 (ip), vehicle: saline) is 104 % of control.

As for `COC(OC)c1[nH]c(=S)[nH]c(=O)c1Cc1cc(C)ccc1C`, the T/C is 95 % of control (dose: 50.0 mg/kg/injection, schedule: Q04DX003 (ip), vehicle: Klucel (hydroxypropylcellulose) (HPC)); 104 % of control (dose: 100.0 mg/kg/injection, schedule: Q01DX001 (ip), vehicle: Klucel (hydroxypropylcellulose) (HPC)); 100 % of control under setting [2]; 104 % of control (dose: 200.0 mg/kg/injection, schedule: Q01DX001 (ip), vehicle: Klucel (hydroxypropylcellulose) (HPC)); 95 % of control under setting [3]; 109 % of control (dose: 400.0 mg/kg/injection, schedule: Q01DX001 (ip), vehicle: Klucel (hydroxypropylcellulose) (HPC)).

As to `CCCCN(CCCC)CCNc1ccc(Cl)c2oc3cc(C)ccc3c(=O)c12`, the T/C is, setting by setting: (dose: 50.0 mg/kg/injection, schedule: Q01DX009 (ip), vehicle: saline with Tween-80) 100 % of control; under setting [11], 104 % of control; under setting [12], 100 % of control; under setting [13], 104 % of control; under setting [14], 100 % of control.

For the compound `C(=N\Nc1nnn(Cc2ccccc2)n1)/c1ccccc1`, the T/C is 90 % of control under setting [12]; 95 % of control under setting [14]; 95 % of control (dose: 400.0 mg/kg/injection, schedule: Q04DX003 (ip), vehicle: saline with Tween-80).

As to `CCOC(=S)SCC(=O)Nc1ccc(Br)cc1`, the T/C was 93 % of control (dose: 15.0 mg/kg/injection, schedule: Q01DX009 (ip), vehicle: saline with Tween-80); 96 % of control (dose: 30.0 mg/kg/injection, schedule: Q01DX009 (ip), vehicle: saline with Tween-80); 98 % of control (dose: 60.0 mg/kg/injection, schedule: Q01DX009 (ip), vehicle: saline with Tween-80).

As to `Cc1nn(C2CC(O)C(O)C(CO)O2)c(=O)[nH]c1=O` (configuration not stated), the T/C is 98 % of control (dose: 50.0 mg/kg/injection, schedule: Q01DX009 (ip), vehicle: saline); 99 % of control under setting [5]; 97 % of control under setting [6]; 106 % of control under setting [7].

Turning to `CC(C)n1c(=O)c2ccccc2[s+]1-c1ccccc1` (configuration not stated), the T/C was 95 % of control under setting [15], 95 % of control under setting [16] and 92 % of control under setting [17].

As for `CC(C)C(=O)Nc1ccc(Cl)cc1`, the T/C runs as follows: under setting [15], 100 % of control; under setting [16], 100 % of control; under setting [17], 100 % of control.

For `Cc1cccc(/C=N/Nc2ccccn2)n1`, the T/C (dose: 50.0 mg/kg/injection, schedule: Q01DX005 (ip), vehicle: saline with Tween-80) is 108 % of control and the T/C (dose: 100.0 mg/kg/injection, schedule: Q01DX005 (ip), vehicle: saline with Tween-80) was 118 % of control.

As for `CC(=O)C(O)N1C(=O)C=CC1=O` (configuration not stated), the T/C is, setting by setting: (dose: 0.31 mg/kg/injection, schedule: Q04DX003 (ip), vehicle: saline) 95 % of control; (dose: 0.62 mg/kg/injection, schedule: Q04DX003 (ip), vehicle: saline) 100 % of control; (dose: 1.25 mg/kg/injection, schedule: Q04DX003 (ip), vehicle: saline) 100 % of control; under setting [10], 91 % of control; (dose: 5.0 mg/kg/injection, schedule: Q04DX003 (ip), vehicle: saline) 91 % of control.

As to `O=C1c2ccccc2C(=O)N1N1C(=O)c2ccccc2C1=O`, the T/C under setting [11] is 100 % of control, the T/C under setting [13] was 90 % of control and the T/C under setting [18] is 100 % of control.

With `CCCCCCC(=O)/C=C/c1ccccc1Cl`, the T/C is 102 % of control under setting [11], 118 % of control under setting [13] and 93 % of control under setting [18].
